Results taken from US20090162329A1, “COMPOSITIONS COMPRISING HDAC INHIBITORS AND METHODS OF THEIR USE IN RESTORING STEM CELL FUNCTION AND PREVENTING HEART FAILURE” (priority 2007, published 2009).
Entries after “also recorded” stand apart in the source; their conditions may differ.

Key:
[1] = tested on: ESCs; assay: Effect of HDAC inhibitors on ESC differentiation after LIF removal (FIG. 23); assay type: cell-based, mouse; conditions: following LIF removal
Description: FIG. 23. Effect of HDAC inhibitors on ESC differentiation. […] DAPI, blue.

[2] = tested on: histone H3; assay: Histone H3 methylation in ESCs by Western blotting (FIG. 15); assay type: cell-based; conditions: mouse ESCs, loading by histone H1
Experimental: FIG. 15. Histone methylation in VPCs, MPCs and ESCs. A: H3K79me2 is present in MPCs and absent in VPCs. B: Shear stress (SS) induces a 4-5-fold increase in H3K79me2 in mouse ESCs. […] Equal loading is determined on the basis of histone H1.
Western blotting. Genome-wide methylation and acetylation of histone 3 and histone 4 are analyzed. Protein lysates are obtained with Laemmli buffer containing β-mercaptoethanol. Proteins are separated on 15% SDS-PAGE, transferred onto nitrocellulose and exposed to specific antibodies against different histone modifications (H3K9me2/3, H3K27me3, H3K4me2/3, H3K79me3, H4K20me2, H4K5Ac, H4K8Ac, H4K12Ac, H4K16Ac, H3K9Ac, H3K14Ac). Loading conditions are determined by β-actin expression (6, 7, 58, 59). In a similar manner, HDAC expression is quantified in total cell lysates and in nuclear and cytoplasmic lysates (249, 250).

[3] = tested on: class I and II HDAC; conditions: cited from earlier work
[4] = tested on: myocardial hypertrophy; conditions: following pressure overload; cited from earlier work
[5] = tested on: HDAC; conditions: mouse ESCs, nuclear HDAC activity
Experimental: E: The activity of HDAC was measured by employing acetylated H4 as substrate.

[6] = tested on: DNA methyltransferases; conditions: ECs and non-EC types; cited from earlier work

| SMILES | differentiation of ESCs into cardiovascular lineages / cardiac cell phenotypes (flk1, CD31, SM22, α-SA) [1] | neuronal differentiation of ESCs (nestin expression) [1] | overall methylation level of histone H3 [2] | cell cycle arrest and differentiation [3] | myocardial hypertrophy [4] | increase of HDAC activity early after LIF depletion [5] | eNOS mRNA [6] |
| --- | --- | --- | --- | --- | --- | --- | --- |
| Nc1ccccc1NC(=O)c1ccc(CNC(=O)OCc2cccnc2)cc1 [MS27-275] | triggers differentiation of ESCs to cardiac cell phenotypes; also recorded: promotes the preferential differentiation of ESCs into cardiovascular lineages | opposes neuronal commitment | – | – | – | – | – |
| CC(/C=C/C(=O)NO)=C\[C@@H](C)C(=O)c1ccc(N(C)C)cc1 [Trichostatin A] | – | selective expression of nestin | reduces the overall methylation level of histone H3 | induces cell cycle arrest and differentiation | blunts myocardial hypertrophy | inhibited | – |
| Cn1c(/C=C/C(=O)NO)ccc1/C=C/C(=O)c1cccc(F)c1 [MC1568] | inhibits the cardiac commitment of ESCs | favors neuronal differentiation; also recorded: selective expression of nestin | – | – | – | – | – |
| Nc1ncn([C@@H]2O[C@H](CO)[C@@H](O)[C@H]2O)c(=O)n1 [5-azacytidine] | – | – | – | – | – | – | induces the upregulation of eNOS mRNA |
